Data taken from patent publication US20250129045A1, “SMALL MOLECULE PIM AND MTOR KINASE INHIBITOR AND METHODS OF USE THEREOF” (Arizona Board of Regents on Behalf of the University of …, priority 2022, published 2025).
“Also recorded” adds a separate entry of the source. Where two headings read alike, the source gives them in different places.

Tests used:
Pim1 and EDC3 binding = Pim1 and EDC3 binding (Homo sapiens, UniProt P11309); assay: In vitro co-precipitation / co-immunoprecipitation of EDC3 with Pim1; settings: VBT-5445 at concentrations higher than 1 μM, listed as VBT 1-34
Experimental: FIGS. 7A-7I show inhibition of VBT5445 (VBT) on Pim1 and EDC3 binding and phosphorylation. FIG. 7A: In vitro co-precipitation (Co-PPT) assay was performed with recombinant EDC3 and biotinylated Pim1 using Streptavidin beads with increasing concentrations of the Pim inhibitor VBT5445 (VBT). FIG. 7B: Kinase assays were performed with recombinant EDC3 and Pim1 with increasing concentrations of VBT. FIG. 7C: Cell lysates from PC3-LN4 cells cultured with DMSO, 10 μM VBT, 3 μM AZD5363 (AKTi) and the combination for 6 hrs were subjected to western blotting (WB). […] WBs were performed using the indicated antibodies. FIG. 7E: PC3-LN4 cells were seeded into 48 well plate and incubated with either DMSO, VBT, AZD5363 or the combination, for 4.5 days. A real-time imaging system (IncuCyte™) was used to measure cell proliferation using a non-label cell monolayer confluence approach. FIG. 7F-7H: GFP image in PC3 LN4 GFP EDC3 expressing cells treated with PIMi: VBT (5 μM) and VBT (5 μM)+AZD5363 (3 μM) for 6 hrs.

Prostate Cancer Growth = assay: SAR studies using inhibition of prostate cancer growth as a readout; assay type: cell-based; settings: SAR by substituent position
[1] = Plasma pharmacokinetics after oral dosing in mice; assay type: in vivo, mouse
Experimental: Plasma concentrations of GRG-1-34: These concentrations were determined by high performance liquid chromatography (HPLC) tandem mass spectrometry (MS). Quantification was achieved by GRG-1-34 calibration standards prepared in mouse plasma. GRG-1-34 in calibration standards or authentic samples was extracted by protein precipitation with methanol. After centrifugation, the supernatant was injected onto the HPLC-MS system. HPLC separation was achieved using a C-18 column and a gradient mobile phase of water and acetonitrile, both with 0.1% formic acid. The mass spectrometer was operated in the electrospray positive ion mode with selective reaction monitoring. The calibration curve was linear over the plasma concentration range of 2-1800 ng/ml. The pharmacokinetic analysis was performed using PKSolver 2.0 by a noncompartmental analysis. Murine gavage with GRG 1-34 was approved by the Animal Care Committee of the University of Arizona.
To examine the pharmacokinetics of this class of com-pounds GRG 1-34, one of the active isoforms, was given orally and blood was sampled from 3 mice at each time point (FIG. 21). The plasma concentration of GRG-1-34 peaked at 0.5 h after oral dosing and declined as a function of time. […] It has a large apparent volume of distribution (VZ/F) and apparent systemic clearance (CL/F), likely attributed to low systemic bioavailability (F) after oral dosing. At the maximum blood concentration of […], GRG-1-34 reached a concentration of 4 μM which in cell culture was sufficient to inhibit cell growth.

Pim kinase = assay: Pim substrate phosphorylation in LNCaP prostate cancer cells (Western blot); assay type: cell-based; settings: serum-starved conditions
Experimental: Right: LNCaP and LNCaP stably expressed Pim1 cells were treated with DMSO and GRG-1-34 ([…]) without FBS medium for 6 h. Lysates (25 μg) were subjected to western blotting with the antibodies for P-IRS1 (S1101), IRS1, P-elF4B (S406), elF4B, P-EDC3 (S161), EDC3, Pim1, and β-Actin.
Immunoblotting: Western blots were performed as described previously. Briefly, protein lysates (30 μg) were subjected to SDS-PAGE and transferred to nitrocellulose membranes. After blocking with 5% milk in TBST buffer for 30 min at room temperature, the membranes were incubated overnight at 4° C. with the Indicated primary antibody in 3% BSA in TBST. Specific proteins were detected with the corresponding HRP conjugated secondary antibody using enhanced chemiluminescence (GE Lifesciences, Piscataway, NJ).

[2] = test system: PANC1 pancreatic cancer cells; assay: Growth inhibition of PANC1 pancreatic cancer cells; assay type: cell-based
Experimental: Cell growth assay: Tumor cells were seeded into 48 well plates (1000 cells/well) and treated with varied agents. The Incucyte real-time imaging system (Incucyte) was used to measure cell proliferation using a non-label cell monolayer confluence approach. The images were captured every 12 h. Graphs were generated using an integrated confluence metric as an alternative for cell numbers. At the end of the study cell growth was visualized by crystal violet staining.
Because of ease of growth, PANC1 pancreatic cancer cells were used to test the activity of derivatives of VBT-5445 (FIG. 14). […] Using a doxycycline inducible Pim kinase vector in these tumor cells, this inhibition of phosphorylation was proportional to the level of Pim in these cells (FIG. 9). […] Inhibition of mTORC1 is known to stimulate the feedback activation of mTORC2 leading to AKT phosphorylation. […] The effect of these compounds on mTORC1 and 2 was still evident in PC3-LN4 cells that contained a knockout (KO) using CRISPR/CAS9 of either TSC2 or DEPDC5 (FIG. 12, lanes 4-9). TSC2 KO activated the Rheb GTPase while DEPDC5 KO activated the RAG GTPase both of which stimulate mTORC1 activity. Thus, GRG compounds were capable of inhibiting mTORC1 activity even when this kinase was highly activated.

A549 lung cancer = A549 lung cancer growth (crystal violet, 7 days); assay type: cell-based; settings: 7 days of growth
Experimental: Cells were plated at 1000 cells per well and 24 h later treated with GRG compounds. After 7 days of growth, tumor cells were fixed with 4% paraformaldehyde, stained with 0.5% crystal violet in methanol and lysed in SDS. The absorbance of six samples treated with each compound or DMSO control was read at 570 nm. The error bars represent the Standard Deviation of these measurements

PC3-LN4 cells = assay: Western blotting of PC3-LN4 cell lysates; assay type: cell-based, human; settings: PC3-LN4 cells with CRISPR/CAS9 knockout of TSC2 or DEPDC5

Pim1 and EDC3 binding, sequence (P11309 whole entry): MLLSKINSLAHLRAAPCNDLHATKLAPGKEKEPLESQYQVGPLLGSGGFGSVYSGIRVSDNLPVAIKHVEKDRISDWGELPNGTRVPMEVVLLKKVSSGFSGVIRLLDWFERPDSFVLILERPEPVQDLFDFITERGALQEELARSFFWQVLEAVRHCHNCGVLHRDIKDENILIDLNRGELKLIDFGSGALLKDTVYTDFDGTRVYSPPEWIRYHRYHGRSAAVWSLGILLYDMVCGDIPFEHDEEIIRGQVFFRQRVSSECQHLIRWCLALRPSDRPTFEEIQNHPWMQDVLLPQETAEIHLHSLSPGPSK

half-life ([1]; mouse, plasma, 62 mg/kg, oral, read-out: half-life (T1/2) (converted)): 2.08 h
Cmax ([1]; mouse, plasma, oral, dose of 62 mg/kg, read-out: average maximum plasma concentration (Cmax)): 1990 ng/mL
apparent systemic clearance (CL/F) ([1]; oral): large
maximum blood concentration ([1]; oral): 2 ng/mL
time at which the plasma concentration peaked after oral dosing ([1]; oral (gavage)): 0.5 h
blood concentration reached at the maximum, molar ([1]; oral, level sufficient in cell culture to inhibit growth): 4 µM
SMILES: O=c1c(CNCc2cc(Br)ccn2)cc2ccc(Cl)cc2n1CCOc1ccccc1 [GRG-1-34, 3-((((4-bromopyridin-2-yl)methyl)amino)methyl)-7-chloro-1-(2-phenoxyethyl) quinolin-2 (1H)-one]
co-immunoprecipitation of EDC3 with Pim (Pim1 and EDC3 binding): block the co-immunoprecipitation of EDC3 with Pim; also recorded: blocks co-immunoprecipitation of EDC3 with Pim
Activity (inhibition of prostate cancer growth) (Prostate Cancer Growth): 6 active compounds
Pim kinase activity: Pim substrate phosphorylation (IRS1, elF4B, EDC3) (Pim kinase): decreased Pim substrate phosphorylation
Pim kinase activity: Pim substrate phosphorylation (IRS1, elF4B, EDC3) (Pim kinase; listed as GRG 1-34): suppresses Pim kinase activity
Pim kinase activity: Pim substrate phosphorylation (IRS1, elF4B, EDC3) (Pim kinase; listed as VBT 1-34): inhibits Pim activity
growth inhibitory activity against PANC1 pancreatic cancer cells [2]: most active
growth inhibitory activity against PANC1 pancreatic cancer cells ([2]; listed as VBT 1-34): inhibits the growth; also recorded: shows activity
A549 lung cancer growth (A549 lung cancer): Inhibition
A549 lung cancer growth (A549 lung cancer; listed as VBT 1-34): shows activity
mTORC activity in TSC2 or DEPDC5 KO prostate tumor cells (PC3-LN4 cells): inhibits mTORC
